The text below walks through data of patent publication US20250115597A1, “TYK2 INHIBITORS AND COMPOSITIONS AND METHODS THEREOF” (LYNK PHARMACEUTICALS CO. LTD., priority 2021, published 2025).

Read-outs that look alike come from different tables or passages of the source.

Series [1] is described as follows: Hepatocytes metabolic stability assay. Type of series: in vitro ADME. Conditions: cryopreserved hepatocytes, human hepatocytes, 1.0×10^6 cells/mL; for CLint scaled at 1 μM: read-out: Human hepatocyte Clint(liver); for half-life at 1 μM: read-out: Human hepatocyte stability T1/2. The protocol:
Hepatocytes Metabolic Stability Assay
The vials of cryopreserved hepatocytes were removed from the liquid nitrogen container and immediately immersed in a 37° C. water bath for approximately 2 min. The melted ice pellets were transferred into tubes containing 50 mL of pre-warmed thawing medium and mixed well by gently inverting the tubes, and then centrifuged at 500 rpm for 3 minutes at room temperature. The supernatants were discarded, and cell pellets were re-suspended by adding appropriate volumes of pre-warmed incubation medium. The cells viability of each species was determined using Trypan Blue exclusion. Add 50 μL of pre-warmed 2× dosing solution to the wells designated for different time points. Then 50 μL of cells suspension (2×10^6 cells/mL) were added into appropriate wells at corresponding time points of T15, T30, T60, T120. Start timing and put the plate in an incubator at 37° C. For TO sample, add 300 μL of ACN containing internal standard to the wells, mix gently, then add 50 μL of pre-warmed hepatocytes solution (2×10^6 cells/mL). The concentration of test compound was 1 μM and 1.0×10^6 cells/mL in the final incubation. At each corresponding time point, test and control compounds reaction samples were stopped by adding 300 μL acetonitrile containing internal standard. All sample plates were thoroughly mixed and centrifuged at 5000×g for 15 minutes. The supernatants were diluted at ratio of 1:1 with ultra-pure water for test and positive controls. Then submitted for LC-MS/MS analysis.
The analyte/internal standard peak area ratios were converted to percentage remaining with the following equation: […]
The in vitro elimination constant, k of test compounds and control compounds were calculated from a log linear plot of % Remaining versus time, then the half-life (T1/2), the estimation of the in vitro hepatic intrinsic clearance (CLint) values were calculated from substrate disappearance rate in hepatocytes incubation: […]

The target of another series is T1, TYK2-JH2 domain (Homo sapiens, UniProt P29597).
T1 construct: IC50 on JH2 domain activity (nM)
Put plainly: Binding activity test for JH2 domain of TYK2 (Tb-antibody/tracer FRET). Conditions: for JAK1/TYK2 selectivity: ratio JAK1-JH2 IC50 / TYK2-JH2 IC50. In a few lines:
(§1)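 FRET read-out after 60 min at 25° C plus overnight at 4° C; tracer displacement detected via Tb-labelled antibody on the JH2 domain. Dose-response used 11 points at 3-fold dilution.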

Series [2] can be described thus: Microsomal metabolic stability assay. The series is classed as in vitro ADME. The conditions noted are these: pH 7.4, 0.5 mg/mL protein, 1 μM compound. In a few lines: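 Parent loss was tracked by LC/MS/MS at 0, 5, 15, 30 and 45 min, with half-life derived from the ln(% remaining)–time slope. Incubation at 37 °C, pH 7.4 phosphate/EDTA buffer: 0.5 mg/mL microsomes, 1 μM compound, NADPH-regenerated (2 mM).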

For series [3], the target named is T2, Ba/F3-FL-TYK2-P760L cells (Homo sapiens, UniProt P29597, P760L, cells depend on it).
T2 construct: BaF3-FL-T2P760L (nM)
Put plainly: Anti-proliferative assay, Ba/F3-FL-TYK2-P760L cells (Cell-Titer Glo). The series is classed as cell-based. The conditions noted are these: 72 h, read-out: BaF3-FL-T2P760L IC50. The essentials:
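Compound exposure ran 72 h at 37 °C in 5% CO2 across nine 3-fold concentrations from a 20 μM top dose, added 24 h after seeding 2000 cells/well.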

For the next series, the system named is pSTAT1. In words: Phosphorylation inhibition of STAT in human whole blood, IFN-alpha stimulated (flow cytometry). The series is classed as cell-based. The conditions noted are these: 20 min, read-out: IC50 on pSTAT1 inhibition in h WB. As to the method: Phosphorylation Inhibition of STAT in Human PBMC and Human Whole Blood Testing:
The inhibitory potential of test articles in human PBMC and human whole blood assay was evaluated by the method of flow cytometry.
IFN-alpha will activate JAK1 and TYK2 kinase in T cells by binding to IFN receptors, and then lead to phosphorylation of STAT1 and STAT2. The phosphorylated STAT1 enter nuclear and promote transcription and expression of IFN-gamma. To evaluate the efficacy of TYK2i in T cells, freshly prepared human PBMC or freshly collected human whole blood will be stimulated with certain unit of human IFN-alpha (Universal Type I IFN(1MU), R&D, 11200-2) for 20 mins in incubator. After stimulation, fix cells with Phosflow™ Fix Buffer I (BD, 557870), and then collect fixed cells by centrifugation (500 g, 8 min). Wash cells once with pre-cooled PBS, and then permeabilize cells with cold Perm Buffer III buffer (BD, 558050) for 45 mins on ice. Collect cells by centrifugation (600 g, 8 min) and washed twice with cold PBS. Stain cells with anti-human CD3 (FITC Mouse Anti-Human CD3, BD, 555332) and anti-pSTAT1_Y701(Alexa Fluor 647 Mouse Anti-Stat1 (pY701), BD, 612597) antibodies. Detect pSTAT1 by flow cytometry (CytoFlex S) and analyze data with FlowJo and GraphPad Prism 8 software. IC50 values of test articles were determined using 4-parameter logistic equation.
In general terms: Flow cytometry measures light scatter and fluorescence of single cells or particles in a stream.

The next series deals with T3, JAK1-JH2 domain (Homo sapiens, UniProt P23458).
T3 construct: IC50 on JH2 domain activity (nM)
Put plainly: Binding activity test for JH2 domain of JAK1 (Tb-antibody/tracer FRET). In a few lines:
as §1

Where [4] appears, read: dog liver microsomes, read-out: Dog LM Clint.
[5] abbreviates: dog liver microsomes, read-out: Dog LM T½.
[6] abbreviates: human liver microsomes, read-out: Human LM Clint.
Setting [7] is: human liver microsomes, read-out: Human LM T½.
The mark [8] stands for this setting: rat liver microsomes, read-out: Rat LM Clint.
Where [9] appears, read: rat liver microsomes, read-out: Rat LM T½.
The mark [10] stands for this setting: human whole blood, IFN-alpha 20 mins, CD3 cells.

T2 sequence (P29597 whole entry P760L): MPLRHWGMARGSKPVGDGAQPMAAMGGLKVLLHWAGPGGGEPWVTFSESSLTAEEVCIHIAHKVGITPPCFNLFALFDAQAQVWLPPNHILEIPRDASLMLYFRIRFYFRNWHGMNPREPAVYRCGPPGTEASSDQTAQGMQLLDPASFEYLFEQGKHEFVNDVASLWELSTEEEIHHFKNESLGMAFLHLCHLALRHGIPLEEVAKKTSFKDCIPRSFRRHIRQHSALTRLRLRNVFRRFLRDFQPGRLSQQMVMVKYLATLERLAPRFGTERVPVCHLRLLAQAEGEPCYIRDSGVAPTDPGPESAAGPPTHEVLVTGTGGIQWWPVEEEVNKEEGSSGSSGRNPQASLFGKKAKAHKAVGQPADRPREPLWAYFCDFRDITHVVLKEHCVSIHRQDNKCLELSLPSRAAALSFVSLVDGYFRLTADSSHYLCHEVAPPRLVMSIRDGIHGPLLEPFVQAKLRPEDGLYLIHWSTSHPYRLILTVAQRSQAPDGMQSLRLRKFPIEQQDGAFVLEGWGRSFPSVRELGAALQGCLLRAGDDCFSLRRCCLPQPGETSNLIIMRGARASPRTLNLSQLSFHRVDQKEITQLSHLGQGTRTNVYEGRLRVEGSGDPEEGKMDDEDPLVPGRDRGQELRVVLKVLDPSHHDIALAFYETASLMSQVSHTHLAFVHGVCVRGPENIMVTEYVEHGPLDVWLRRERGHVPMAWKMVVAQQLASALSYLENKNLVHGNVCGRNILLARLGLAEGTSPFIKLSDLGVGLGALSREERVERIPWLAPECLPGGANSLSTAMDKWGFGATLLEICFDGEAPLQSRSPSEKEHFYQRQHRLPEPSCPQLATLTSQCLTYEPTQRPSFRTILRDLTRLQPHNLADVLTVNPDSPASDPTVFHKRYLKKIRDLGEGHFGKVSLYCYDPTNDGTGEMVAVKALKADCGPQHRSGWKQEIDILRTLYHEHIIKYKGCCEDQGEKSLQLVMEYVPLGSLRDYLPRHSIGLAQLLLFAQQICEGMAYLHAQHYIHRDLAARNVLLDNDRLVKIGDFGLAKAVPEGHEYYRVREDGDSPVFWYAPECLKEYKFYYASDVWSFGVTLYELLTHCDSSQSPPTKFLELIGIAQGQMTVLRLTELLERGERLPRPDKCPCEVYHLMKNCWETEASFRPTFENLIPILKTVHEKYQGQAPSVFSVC
T3 sequence (P23458 583-855 limits assumed): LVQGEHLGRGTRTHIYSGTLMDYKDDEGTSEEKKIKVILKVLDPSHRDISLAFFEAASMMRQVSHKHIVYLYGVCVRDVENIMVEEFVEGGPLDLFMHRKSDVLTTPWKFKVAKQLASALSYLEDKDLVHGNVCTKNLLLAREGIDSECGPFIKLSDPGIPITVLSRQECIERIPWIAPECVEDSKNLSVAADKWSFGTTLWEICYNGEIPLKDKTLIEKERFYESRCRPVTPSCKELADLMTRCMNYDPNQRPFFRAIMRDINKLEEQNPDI
T1 sequence (P29597 589-875 limits assumed): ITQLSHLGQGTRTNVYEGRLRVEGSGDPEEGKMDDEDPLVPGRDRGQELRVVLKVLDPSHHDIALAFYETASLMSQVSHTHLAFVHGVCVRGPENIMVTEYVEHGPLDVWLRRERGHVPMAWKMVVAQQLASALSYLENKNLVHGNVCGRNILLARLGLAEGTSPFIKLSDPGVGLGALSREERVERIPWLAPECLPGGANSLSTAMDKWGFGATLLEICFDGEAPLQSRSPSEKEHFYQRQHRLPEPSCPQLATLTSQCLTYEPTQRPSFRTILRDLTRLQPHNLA

The term IC50 denotes the concentration at which inhibition is half-maximal. Take `[2H]C([2H])([2H])NC(=O)c1cnc(NC(=O)C2CC2)cc1Nc1nn(CC)c2ccn(CC(F)(F)F)c(=O)c12` [Example 105, 6-(Cyclopropanecarboxamido)-4-((1-ethyl-4-oxo-5-(2,2,2-trifluoroethyl)-4,5-dihydro-1H-pyrazolo[4,3-c]pyridin-3-yl)amino)-N-(methyl-d3)nicotinamide]: the CLint scaled at 1 μM in series [1] came out at 8.69 mL/min/kg. In addition, the half-life at 1 μM in series [1] amounted to 3.38 h; in series [2] (setting [5]), 2.22 h; in series [2] (setting [7]), 4.14 h; in series [2] (setting [9]), 0.503 h. The same compound showed an IC50 on TYK2-JH2 domain of 0.000733 µM. The microsomal CLint at 1 μM is 10.4 µL/min/mg in series [2] (setting [4]), 5.58 µL/min/mg in series [2] (setting [6]) and 45.9 µL/min/mg in series [2] (setting [8]). In series [3], the GI50 turned out to be 0.146 µM.

Turning to `[2H]C([2H])([2H])NC(=O)c1cnc(NC(=O)C2CC2)cc1Nc1ccn2ncc(CC#N)c2c1OC` [Example 239, 4-((3-(Cyanomethyl)-4-methoxypyrazolo[1,5-a]pyridin-5-yl)amino)-6-(cyclopropanecarboxamido)-N-(methyl-d3)nicotinamide], the IC50 on TYK2-JH2 domain came to 0.000188 µM; with pSTAT1 (setting [10]), 0.157 µM; on JAK1-JH2 domain it was 0.00541 µM. Further, the JAK1/TYK2 selectivity at TYK2-JH2 domain is recorded as 28.8. Besides, the GI50 in series [3] worked out at 0.0847 µM.

As to `C=CCn1cc(Nc2cc(NC(=O)C3CC3)ncc2C(=O)NC)c2c(=O)n(CC)ccc21` [Example 246, 4-((1-Allyl-5-ethyl-4-oxo-4,5-dihydro-1H-pyrrolo[3,2-c]pyridin-3-yl)amino)-6-(cyclopropanecarboxamido)-N-methylnicotinamide], the IC50 at TYK2-JH2 domain amounted to 0.000156 µM; with pSTAT1 (setting [10]), 0.287 µM; at JAK1-JH2 domain, 0.0118 µM. Also, the JAK1/TYK2 selectivity at TYK2-JH2 domain is recorded as 75.9. Moreover, the GI50 in series [3] stood at 0.0757 µM.

As to `[2H]C([2H])([2H])NC(=O)c1cnc(NC(=O)C2CC2)cc1Nc1nn(CC2CC2)c2ccn(CC(F)(F)F)c(=O)c12` [Example 203, 6-(Cyclopropanecarboxamido)-4-((1-(cyclopropylmethyl)-4-oxo-5-(2,2,2-trifluoroethyl)-4,5-dihydro-1H-pyrazolo[4,3-c]pyridin-3-yl)amino)-N-(methyl-d3)nicotinamide], the IC50 turned out to be 0.000173 µM on TYK2-JH2 domain, 0.468 µM in the series with pSTAT1 (setting [10]) and 0.0185 µM at JAK1-JH2 domain. The JAK1/TYK2 selectivity on TYK2-JH2 domain was found to be 106.7. The GI50 in series [3] turned out to be 0.0466 µM.

`[2H]C([2H])([2H])NC(=O)c1cnc(NC(=O)[C@@H]2C[C@@H]2F)cc1Nc1ccc2cnn(CC)c2c1OC` (relative stereo) [Example 256, 4-((1-Ethyl-7-methoxy-1H-indazol-6-yl)amino)-6-(cis-2-fluorocyclopropanecarboxamido)-N-(methyl-d3)nicotinamide]: the values for the half-maximal inhibitory concentration (IC50) at TYK2-JH2 domain, with pSTAT1 (setting [10]) and at JAK1-JH2 domain were 0.000265 µM, 0.256 µM and 0.0108 µM, respectively. For the same compound, the JAK1/TYK2 selectivity on TYK2-JH2 domain amounted to 40.8. The GI50 in series [3] came to 0.0695 µM.

For the compound `[2H]C([2H])([2H])NC(=O)c1cnc(NC(=O)C2CC2)cc1Nc1cn(C)c2ccn(CCO)c(=O)c12` [Example 113, 6-(Cyclopropanecarboxamido)-4-((5-(2-hydroxyethyl)-1-methyl-4-oxo-4,5-dihydro-1H-pyrrolo[3,2-c]pyridin-3-yl)amino)-N-(methyl-d3)nicotinamide], the concentration for half-maximal inhibition (IC50) in the series with pSTAT1 (setting [10]) turned out to be 0.344 µM. Also, in series [3], the GI50 was determined as 2.39 µM.

As to `[2H]C([2H])([2H])NC(=O)c1nnc(NC(=O)C2CC2)cc1Nc1cn(C)c2ccn(C)c(=O)c12` [Example 224, 6-(Cyclopropanecarboxamido)-4-((1,5-dimethyl-4-oxo-4,5-dihydro-1H-pyrrolo[3,2-c]pyridin-3-yl)amino)-N-(methyl-d3)pyridazine-3-carboxamide], the IC50 in the series with pSTAT1 (setting [10]) came to 0.426 µM. Further, the GI50 in series [3] is 0.214 µM.

As to `[2H]C([2H])([2H])NC(=O)c1cnc(NC(=O)C2CC2)cc1Nc1ccc2ccn(CC)c2c1OC` [Example 244, 6-(Cyclopropanecarboxamido)-4-((1-ethyl-7-methoxy-1H-indol-6-yl)amino)-N-(methyl-d3)nicotinamide], the IC50 at TYK2-JH2 domain was found to be 0.000125 µM; in the series with pSTAT1 (Homo sapiens), 0.19 µM; on JAK1-JH2 domain it was 0.00458 µM. In addition, at TYK2-JH2 domain, the JAK1/TYK2 selectivity is recorded as 36.6. Also, the GI50 in series [3] came to 0.0181 µM.

Turning to `[2H]C([2H])([2H])NC(=O)c1cnc(NC(=O)C2CC2)cc1Nc1ccn2ncc(Cl)c2c1OC` [Example 235, 4-((3-Chloro-4-methoxypyrazolo[1,5-a]pyridin-5-yl)amino)-6-(cyclopropanecarboxamido)-N-(methyl-d3)nicotinamide], the IC50 amounted to 0.000262 µM on TYK2-JH2 domain, 0.44 µM with pSTAT1 (setting [10]) and 0.00674 µM at JAK1-JH2 domain. For the same compound, the JAK1/TYK2 selectivity on TYK2-JH2 domain is reported as 25.7. The GI50 in series [3] was found to be 0.0447 µM.

For `[2H]C([2H])([2H])NC(=O)c1cnc(NC(=O)C2CC2)cc1Nc1ncc2cnn(CC(F)(F)F)c2c1OC` [Example 266, 6-(Cyclopropanecarboxamido)-4-((7-methoxy-1-(2,2,2-trifluoroethyl)-1H-pyrazolo[4,3-c]pyridin-6-yl)amino)-N-(methyl-d3)nicotinamide], the 50% inhibitory concentration (IC50) was determined as 0.000287 µM on TYK2-JH2 domain, 0.0943 µM with pSTAT1 (setting [10]) and 0.0442 µM on JAK1-JH2 domain. Moreover, at TYK2-JH2 domain, the JAK1/TYK2 selectivity was found to be 154. For the same compound, the GI50 in series [3] was determined as 0.0762 µM.

Consider `[2H]C([2H])([2H])NC(=O)c1cnc(Nc2ccncn2)cc1Nc1cc(F)c2cnn(CC)c2c1OC` [Example 157, 4-((1-Ethyl-4-fluoro-7-methoxy-1H-indazol-6-yl)amino)-N-(methyl-d3)-6-(pyrimidin-4-ylamino)nicotinamide], for which, in series [1], the CLint scaled at 1 μM came to 13.9 mL/min/kg. The half-life at 1 μM in series [1] was 2.12 h; in series [2] (setting [5]) it was 0.548 h; in series [2] (setting [7]) it was 0.289 h; in series [2] (setting [9]), 0.221 h. In addition, the results for the IC50 at TYK2-JH2 domain and at JAK1-JH2 domain were 0.000357 µM and 0.0252 µM, respectively. For the same compound, the JAK1/TYK2 selectivity at TYK2-JH2 domain stood at 70.6. For the same compound, the microsomal CLint at 1 μM in series [2] (setting [4]) is 42.1 µL/min/mg; in series [2] (setting [6]), 79.9 µL/min/mg; in series [2] (setting [8]), 106 µL/min/mg. For the same compound, the GI50 in series [3] was 0.0539 µM.
